Measurements reported in ChEMBL document CHEMBL4715697, “Synthesis and biological activity of benzamide DNA minor groove binders” (2016).

Tests used:
Assay type in all cases: functional
SN12C = experiment: Growth inhibition of human SN12C cells assessed as cell growth at 0.01 uM incubated for 48 hrs by sulforhodamine B assay relative to control; conditions: read-out: Activity
COLO 205 [1] = experiment: Growth inhibition of human COLO 205 cells assessed as cell growth at 0.01 uM incubated for 48 hrs by sulforhodamine B assay relative to control; conditions: read-out: Activity
HCT-15 [2] = experiment: Growth inhibition of human HCT-15 cells assessed as cell growth at 100 uM incubated for 48 hrs by sulforhodamine B assay relative to control; conditions: read-out: Activity
SF-539 = experiment: Growth inhibition of human SF-539 cells assessed as cell growth at 0.1 uM incubated for 48 hrs by sulforhodamine B assay relative to control; conditions: read-out: Activity
SR = experiment: Growth inhibition of human SR cells incubated for 48 hrs by sulforhodamine B assay
Malme-3M = experiment: Growth inhibition of human Malme-3M cells assessed as cell growth at 100 uM incubated for 48 hrs by sulforhodamine B assay relative to control; conditions: read-out: Activity
UO-31 [3] = experiment: Growth inhibition of human UO-31 cells incubated for 48 hrs by sulforhodamine B assay
HCT-15 [4] = experiment: Growth inhibition of human HCT-15 cells assessed as cell growth at 0.01 uM incubated for 48 hrs by sulforhodamine B assay relative to control; conditions: read-out: Activity
IGROV-1 = experiment: Growth inhibition of human IGROV-1 cells assessed as cell growth at 100 uM incubated for 48 hrs by sulforhodamine B assay relative to control; conditions: read-out: Activity
UO-31 [5] = experiment: Growth inhibition of human UO-31 cells assessed as cell growth at 0.1 uM incubated for 48 hrs by sulforhodamine B assay relative to control; conditions: read-out: Activity
COLO 205 [6] = experiment: Growth inhibition of human COLO 205 cells incubated for 48 hrs by sulforhodamine B assay
U-251 = experiment: Growth inhibition of human U-251 cells assessed as cell growth at 100 uM incubated for 48 hrs by sulforhodamine B assay relative to control; conditions: read-out: Activity
UO-31 [7] = experiment: Growth inhibition of human UO-31 cells assessed as cell growth at 0.01 uM incubated for 48 hrs by sulforhodamine B assay relative to control; conditions: read-out: Activity
CCRF-CEM = experiment: Growth inhibition of human CCRF-CEM cells assessed as cell growth at 0.1 uM incubated for 48 hrs by sulforhodamine B assay relative to control; conditions: read-out: Activity
OVCAR-5 = experiment: Growth inhibition of human OVCAR-5 cells assessed as cell growth at 0.01 uM incubated for 48 hrs by sulforhodamine B assay relative to control; conditions: read-out: Activity
SF-295 = experiment: Growth inhibition of human SF-295 cells incubated for 48 hrs by sulforhodamine B assay
NCI-H23 = experiment: Growth inhibition of human NCI-H23 cells assessed as cell growth at 0.01 uM incubated for 48 hrs by sulforhodamine B assay relative to control; conditions: read-out: Activity
CAKI-1 = experiment: Growth inhibition of human CAKI-1 cells incubated for 48 hrs by sulforhodamine B assay
UACC-62 [8] = experiment: Growth inhibition of human UACC-62 cells incubated for 48 hrs by sulforhodamine B assay
T47D = experiment: Growth inhibition of human T47D cells assessed as cell growth at 1 uM incubated for 48 hrs by sulforhodamine B assay relative to control; conditions: read-out: Activity
COLO 205 [9] = experiment: Growth inhibition of human COLO 205 cells assessed as cell growth at 0.1 uM incubated for 48 hrs by sulforhodamine B assay relative to control; conditions: read-out: Activity
SK-MEL-2 [10] = experiment: Growth inhibition of human SK-MEL-2 cells assessed as cell growth at 100 uM incubated for 48 hrs by sulforhodamine B assay relative to control; conditions: read-out: Activity
MDA-MB-435 = experiment: Growth inhibition of human MDA-MB-435 cells incubated for 48 hrs by sulforhodamine B assay
EKVX = experiment: Growth inhibition of human EKVX cells assessed as cell growth at 0.01 uM incubated for 48 hrs by sulforhodamine B assay relative to control; conditions: read-out: Activity
RXF 393 = experiment: Growth inhibition of human RXF 393 cells assessed as cell growth at 100 uM incubated for 48 hrs by sulforhodamine B assay relative to control; conditions: read-out: Activity
HCT-116 = experiment: Growth inhibition of human HCT-116 cells assessed as cell growth at 100 uM incubated for 48 hrs by sulforhodamine B assay relative to control; conditions: read-out: Activity
M14 = experiment: Growth inhibition of human M14 cells assessed as cell growth at 0.01 uM incubated for 48 hrs by sulforhodamine B assay relative to control; conditions: read-out: Activity
HCC 2998 = experiment: Growth inhibition of human HCC 2998 cells assessed as cell growth at 0.1 uM incubated for 48 hrs by sulforhodamine B assay relative to control; conditions: read-out: Activity
MCF7 = experiment: Growth inhibition of human MCF7 cells incubated for 48 hrs by sulforhodamine B assay
UACC-62 [11] = experiment: Growth inhibition of human UACC-62 cells assessed as cell growth at 100 uM incubated for 48 hrs by sulforhodamine B assay relative to control; conditions: read-out: Activity
SK-MEL-2 [12] = experiment: Growth inhibition of human SK-MEL-2 cells incubated for 48 hrs by sulforhodamine B assay
PC-3 = experiment: Growth inhibition of human PC-3 cells assessed as cell growth at 100 uM incubated for 48 hrs by sulforhodamine B assay relative to control; conditions: read-out: Activity
SF-268 = experiment: Growth inhibition of human SF-268 cells assessed as cell growth at 0.01 uM incubated for 48 hrs by sulforhodamine B assay relative to control; conditions: read-out: Activity
[13] = read-out: LC50 (the source's name)
[14] = read-out: pLC50 (the source's name) (converted)

SMILES: CC(=O)Nc1cc(CO[Si](C)(C)C(C)(C)C)cc(NC(=O)c2ccc(C(=O)Nc3cccc(NC(=O)CCCN(C)C)c3)cc2)c1
- growth at 0.01 µM (SN12C): 96%
- growth at 0.01 µM (COLO 205 [1]): 101%
- growth at 100 µM (HCT-15 [2]): 82%
- growth at 0.1 µM (SF-539): 98%
- GI50 (SR; read-out: GI50): > 75 µM
- CC50 (SR; [13]): > 75 µM
- TGI (SR; read-out: TGI): > 75 µM
- GI50 (SR; read-out: pGI50 (converted)): > 75.9 µM
- CC50 (SR; [14]): > 75.9 µM
- TGI (SR; read-out: pTGI): > 75.9 µM
- growth at 100 µM (Malme-3M): 33%
- GI50 (UO-31 [3]; read-out: GI50): > 75 µM
- CC50 (UO-31 [3]; [13]): > 75 µM
- TGI (UO-31 [3]; read-out: TGI): > 75 µM
- GI50 (UO-31 [3]; read-out: pGI50 (converted)): > 75.9 µM
- CC50 (UO-31 [3]; [14]): > 75.9 µM
- TGI (UO-31 [3]; read-out: pTGI): > 75.9 µM
- growth at 0.01 µM (HCT-15 [4]): 93%
- growth at 100 µM (IGROV-1): 75%
- growth at 0.1 µM (UO-31 [5]): 94%
- GI50 (COLO 205 [6]; read-out: GI50): > 75 µM
- LC50 (COLO 205 [6]; read-out: LC50): > 75 µM
- TGI (COLO 205 [6]; read-out: TGI): > 75 µM
- GI50 (COLO 205 [6]; read-out: pGI50 (converted)): > 75.9 µM
- LC50 (COLO 205 [6]; read-out: pLC50 (converted)): > 75.9 µM
- TGI (COLO 205 [6]; read-out: pTGI): > 75.9 µM
- growth at 100 µM (U-251): 89%
- growth at 0.01 µM (UO-31 [7]): 83%
- growth at 0.1 µM (CCRF-CEM): 98%
- growth at 0.01 µM (OVCAR-5): 93%
- GI50 (SF-295; read-out: GI50): > 75 µM
- LC50 (SF-295; read-out: LC50): > 75 µM
- TGI (SF-295; read-out: TGI): > 75 µM
- GI50 (SF-295; read-out: pGI50 (converted)): > 75.9 µM
- LC50 (SF-295; read-out: pLC50 (converted)): > 75.9 µM
- TGI (SF-295; read-out: pTGI): > 75.9 µM
- growth at 0.01 µM (NCI-H23): 101%
- GI50 (CAKI-1; read-out: GI50): > 75 µM
- CC50 (CAKI-1; [13]): > 75 µM
- TGI (CAKI-1; read-out: TGI): > 75 µM
- GI50 (CAKI-1; read-out: pGI50 (converted)): > 75.9 µM
- CC50 (CAKI-1; [14]): > 75.9 µM
- TGI (CAKI-1; read-out: pTGI): > 75.9 µM
- GI50 (UACC-62 [8]; read-out: GI50): > 75 µM
- CC50 (UACC-62 [8]; [13]): > 75 µM
- TGI (UACC-62 [8]; read-out: TGI): > 75 µM
- GI50 (UACC-62 [8]; read-out: pGI50 (converted)): > 75.9 µM
- CC50 (UACC-62 [8]; [14]): > 75.9 µM
- TGI (UACC-62 [8]; read-out: pTGI): > 75.9 µM
- growth at 1 µM (T47D): 107%
- growth at 0.1 µM (COLO 205 [9]): 100%
- growth at 100 µM (SK-MEL-2 [10]): 87%
- GI50 (MDA-MB-435; read-out: GI50): > 75 µM
- LC50 (50% lethal concentration) (MDA-MB-435; read-out: LC50): > 75 µM
- TGI (MDA-MB-435; read-out: TGI): > 75 µM
- GI50 (MDA-MB-435; read-out: pGI50 (converted)): > 75.9 µM
- LC50 (50% lethal concentration) (MDA-MB-435; read-out: pLC50 (converted)): > 75.9 µM
- TGI (MDA-MB-435; read-out: pTGI): > 75.9 µM
- growth at 0.01 µM (EKVX): 101%
- growth at 100 µM (RXF 393): 83%
- growth at 100 µM (HCT-116): 85%
- growth at 0.01 µM (M14): 97%
- growth at 0.1 µM (HCC 2998): 97%
- GI50 (MCF7; read-out: GI50): 29.7 µM
- CC50 (MCF7; [13]): > 75 µM
- TGI (MCF7; read-out: TGI): > 75 µM
- GI50 (MCF7; read-out: pGI50 (converted)): 29.5 µM
- CC50 (MCF7; [14]): > 75.9 µM
- TGI (MCF7; read-out: pTGI): > 75.9 µM
- growth at 100 µM (UACC-62 [11]): 72%
- GI50 (SK-MEL-2 [12]; read-out: GI50): > 75 µM
- CC50 (SK-MEL-2 [12]; [13]): > 75 µM
- TGI (SK-MEL-2 [12]; read-out: TGI): > 75 µM
- GI50 (SK-MEL-2 [12]; read-out: pGI50 (converted)): > 75.9 µM
- CC50 (SK-MEL-2 [12]; [14]): > 75.9 µM
- TGI (SK-MEL-2 [12]; read-out: pTGI): > 75.9 µM
- growth at 100 µM (PC-3): 93%
- growth at 0.01 µM (SF-268): 99%
